Laboratory results reported in patent US20070276134A1, “COMPOSITIONS AND METHODS FOR COMPLEXES OF NUCLEIC ACIDS AND ORGANIC CATIONS” (NASTECH PHARMACEUTICAL COMPANY INC., priority 2006, published 2007).

Assay: LogP determination in n-octanol and water, classical equilibrium partitioning method
Protocol: A LogP determination was performed on the salts in n-octanol and water using the classical equilibrium partitioning method. This was performed to evaluate the hydrophobic physical properties of the peptide and determine if there was a difference in the apparent hydrophobicity of the salt form of the siRNA versus the control of the sodium salt of siRNA.

| partitioning as a salt versus partitioning as the sodium salt siRNA complex of DOTAP (1-octanol) | LogP (n-octanol and water, salt form of siRNA) | Substance |
| --- | --- | --- |
| distinctly different |  | DOTAP |
|  | −1.98 | Sodium |
